According to ChEMBL document CHEMBL1641531, “Receptor activity and conformational analysis of 5'-halogenated resiniferatoxin analogs as TRPV1 ligands” (Bioorg Med Chem Lett, 2011):

Legend:
[1] = molecular target: T1, Transient receptor potential cation channel subfamily V member 1 (Rattus norvegicus, UniProt O35433); test: Displacement of [3H]RTX from rat […] expressed in CHO cells by competitive binding assay; format: cell-based
[2] = molecular target: Transient receptor potential cation channel subfamily V member 1 (Rattus norvegicus) (UniProt O35433); test: Agonist activity at rat TRPV1 expressed in CHO cells assessed as 45Ca2+ uptake relative to capsaicin; format: functional, cell-based
[3] = molecular target: Transient receptor potential cation channel subfamily V member 1 (Rattus norvegicus) (UniProt O35433); test: (§1) Antagonist activity at rat TRPV1 expressed in CHO cells assessed as response to capsaicin-stimulated 45Ca2+ uptake; format: functional, cell-based; design: scale not given: the % may be the effect or the level left
[4] = molecular target: T1, Transient receptor potential cation channel subfamily V member 1; test: Agonist activity at rat TRPV1 expressed in CHO cells assessed as 45Ca2+ uptake; format: functional, cell-based
[5] = molecular target: T1, Transient receptor potential cation channel subfamily V member 1; test: as §1; format: functional, cell-based

T1 sequence (O35433 whole entry): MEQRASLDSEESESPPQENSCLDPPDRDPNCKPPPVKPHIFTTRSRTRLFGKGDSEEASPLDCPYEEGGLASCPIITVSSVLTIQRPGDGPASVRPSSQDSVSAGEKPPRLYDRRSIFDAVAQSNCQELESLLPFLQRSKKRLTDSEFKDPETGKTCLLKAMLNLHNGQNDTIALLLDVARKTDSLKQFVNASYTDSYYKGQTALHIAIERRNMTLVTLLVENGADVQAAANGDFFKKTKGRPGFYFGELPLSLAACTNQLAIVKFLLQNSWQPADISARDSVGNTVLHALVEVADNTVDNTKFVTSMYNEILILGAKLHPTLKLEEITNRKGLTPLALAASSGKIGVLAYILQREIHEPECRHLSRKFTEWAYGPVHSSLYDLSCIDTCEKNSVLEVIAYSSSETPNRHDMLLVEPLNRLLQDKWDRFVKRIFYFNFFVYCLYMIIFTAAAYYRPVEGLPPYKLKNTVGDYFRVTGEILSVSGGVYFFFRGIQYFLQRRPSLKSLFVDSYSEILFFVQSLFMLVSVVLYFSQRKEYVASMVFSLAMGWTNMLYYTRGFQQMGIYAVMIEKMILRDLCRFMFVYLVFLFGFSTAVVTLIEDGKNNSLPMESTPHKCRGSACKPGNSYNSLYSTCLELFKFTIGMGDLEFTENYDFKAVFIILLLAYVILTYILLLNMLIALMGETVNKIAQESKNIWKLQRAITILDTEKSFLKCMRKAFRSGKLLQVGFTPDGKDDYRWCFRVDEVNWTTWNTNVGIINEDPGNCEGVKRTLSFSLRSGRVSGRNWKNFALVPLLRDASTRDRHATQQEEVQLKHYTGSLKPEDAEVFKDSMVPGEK
Transient receptor potential cation channel subfamily V member 1 (Rattus norvegicus), sequence (O35433 whole entry): as above

Structure (SMILES) | Ki [1] | Activity [2] | Activity [3] | EC50 ([4]; read-out: EC50) | Ki ([5]; cho) | EC50 ([4]; cho) | Ki ([5]; read-out: Ki)
C=C(C)[C@@]12C[C@@H](C)C34OC(Cc5ccccc5)(OC1[C@@H]3C=C(COC(=O)Cc1cc(Br)c(OC(C)=O)c(OC)c1)C[C@]1(O)C(=O)C(C)=C[C@@H]41)O2 (stereo partly specified) | 0.3 nM | 37% | 30% |  |  |  | 
C=C(C)[C@@]12C[C@@H](C)C34OC(Cc5ccccc5)(OC1[C@@H]3C=C(COC(=O)Cc1cc(Cl)c(O)c(OC)c1)C[C@]1(O)C(=O)C(C)=C[C@@H]41)O2 (stereo partly specified) | 1.03 nM |  |  | 5.7 nM | Not Active |  | 
C=C(C)[C@]12C[C@@H](C)[C@@]34O[C@](Cc5ccccc5)(O[C@@H]1[C@@H]3C=C(COC(=O)Cc1ccc(O)c(OC)c1)C[C@]1(O)C(=O)C(C)=C[C@@H]41)O2 [RESINIFERATOXIN] |  |  |  |  | Not Active |  | 
C=C(C)[C@@]12C[C@@H](C)C34OC(Cc5ccccc5)(OC1[C@@H]3C=C(COC(=O)Cc1ccc(N)c(OC)c1)C[C@]1(O)C(=O)C(C)=C[C@@H]41)O2 (stereo partly specified) | 0.13 nM |  |  | 0.46 nM | Not Active |  | 
C=C(C)[C@@]12C[C@@H](C)C34OC(Cc5ccccc5)(OC1[C@@H]3C=C(COC(=O)Cc1cc(Cl)c(N)c(OC)c1)C[C@]1(O)C(=O)C(C)=C[C@@H]41)O2 (stereo partly specified) | 0.85 nM | 34% | 56% |  |  |  | 
C=C(C)[C@@]12C[C@@H](C)C34OC(Cc5ccccc5)(OC1[C@@H]3C=C(COC(=O)Cc1cc(Br)cc(Br)c1)C[C@]1(O)C(=O)C(C)=C[C@@H]41)O2 (stereo partly specified) | 110 nM |  |  | 1070 nM | Not Active |  | 
C=C(C)[C@@]12C[C@@H](C)C34OC(Cc5ccccc5)(OC1[C@@H]3C=C(COC(=O)Cc1cc(F)c(N)c(OC)c1)C[C@]1(O)C(=O)C(C)=C[C@@H]41)O2 (stereo partly specified) | 0.7 nM |  |  | 1.14 nM | Not Active |  | 
C=C(C)[C@@]12C[C@@H](C)C34OC(Cc5ccccc5)(OC1[C@@H]3C=C(COC(=O)Cc1cc(Br)c(N)c(OC)c1)C[C@]1(O)C(=O)C(C)=C[C@@H]41)O2 (stereo partly specified) | 1.99 nM |  |  |  |  | Not Active | 2.81 nM
C=C(C)[C@@]12C[C@@H](C)C34OC(Cc5ccccc5)(OC1[C@@H]3C=C(COC(=O)Cc1cc(I)c(O)c(OC)c1)C[C@]1(O)C(=O)C(C)=C[C@@H]41)O2 (stereo partly specified) | 0.61 nM |  |  |  |  | Not Active | 12.2 nM
C=C(C)[C@@]12C[C@@H](C)C34OC(Cc5ccccc5)(OC1[C@@H]3C=C(COC(=O)Cc1cc(F)c(O)c(OC)c1)C[C@]1(O)C(=O)C(C)=C[C@@H]41)O2 (stereo partly specified) | 0.26 nM |  |  | 1.88 nM | Not Active |  | 
C=C(C)[C@@]12C[C@@H](C)C34OC(Cc5ccccc5)(OC1[C@@H]3C=C(COC(=O)Cc1cc(Br)c(O)c(OC)c1)C[C@]1(O)C(=O)C(C)=C[C@@H]41)O2 (stereo partly specified) | 0.17 nM | 19% |  |  |  |  | 7.2 nM
